Patent publication US9550989B2, “Rational design of microRNA-siRNA chimeras for multi-functional target suppression” (Washington University, priority 2013, dated 2017)

How the values were obtained:
Type in all cases: cell-based, human
HeLa cells = assay: Transwell migration assay; conditions: transwell migration; for promotion of cell motility as compared to the negative control: increase by %; for cell mobility on average as compared to the control: increased to % of control
Description: (A) Transwell migration assays to assess changes in cell motility. (B) MTS assays to assess changes in cell proliferation.
(§1) FIG. 7 depicts images and graphs showing functional characterization of aiR-9 on cell motility and cell death. […] One representative microscope image from each assay is presented here. (B) Impact of aiR-9 on cell death. TP53 deficiency renders HCT116 cells resistance to cisplatin-induced cell death. HCT116 cells and HCT116 p53^−/− cells were treated with cisplatin (50 μM) and cell death was determined as sub-G1 population by flow cytometry analysis after DNA PI staining. Furthermore, HCT116 cells were transfected with negative control RNA, aiR-9-2 or miR-9 individually followed by cisplatin treatment, and then analyzed by flow cytometry for cell death with PI staining.
Cultured cells were resuspended and washed with PBS buffer. Fifty thousand cells in 100 μL serum-free medium were added to the upper chamber of each Transwell (24-well insert with 8 um pore size from Costar). The lower chamber was filled with 600 μL medium containing 10% bovine serum. Cells were incubated for 6 h and cells on top of the membrane were removed with a cotton-tipped swab. Cells that had migrated through the membrane were fixed and stained with Hema-3 (Fisher Scientific) for counting.

HCT116 cells = assay: Flow cytometry of cisplatin-induced cell death (sub-G1, PI staining); conditions: cisplatin 50 μM
Description: as §1
HCT116 and HCT116 p53^−/− cells were cultured in DMEM with 10% FBS. Cisplatin, DNase-free RNase and Propidum Iodide (PI) were purchased from Sigma. After treatment with cisplatin (50 μM), all cells (both floating and attached) were collected, washed once with DPBS, and then fixed with 70% ethanol on ice for at least 30 minutes. Fixed cells were washed twice with DPBS and then stained with PI solution [PI (25 μg/ml) and DNase-free RNase (100 μg/ml) diluted in PBS] at room temperature for 1 hour avoiding light exposure. Data were acquired by BD Aris FACS and analyzed using Flowing Software 2 version 2.5.0 (Finland).

TP53 = assay: Real-time RT-PCR of target mRNA; conditions: HeLa cells
Text: FIG. 6 depicts sequences and a graph showing design and validation of aiRNA-9. (A) Sequences of three aiR-9 RNAs. […] The seed regions are underlined.

Row | Substance | promotion of cell motility as compared to the negative control (HeLa cells) [%] | cell mobility on average as compared to the control (HeLa cells) [%] | cisplatin-induced cell death (sub-G1 cell population) (HCT116 cells) | suppression of TP53 expression (TP53)
1 | aiR-9-2: aiRNA with miR-9 seed and TP53 siRNA homology, SEQ ID NO:11 UCUUUGGUUGGGGAGAGGAGC (listed as RNA, chemistry not given here) | 57 | 157 | drastic suppression of cisplatin-induced cell death | effectively suppress
2 | miR-9: natural miRNA, SEQ ID NO:9 UCUUUGGUUAUCUAGCUGUAUGA (listed as RNA, chemistry not given here) [reference compound] | 44 | 144 | – | –
